# According to patent publication US11066413B2, “Aminopyrimidine five-membered heterocyclic compound, and intermediate, preparation method, pharmaceutical composition and application thereof” (GUANGZHOU MAXINOVEL PHARMACEUTICALS CO., LTD., priority 2017, dated 2021):
# Molecular target: T1, hA2A receptor (Homo sapiens (Human), UniProt P29274)
# Experiment: binding affinity IC50 to hA2A receptor ([3H]-CGS 21680 filter binding, Effect Embodiment 2)
# Settings: A2A membrane, [3H]-CGS 21680 (final 25 nM), 90 minutes at 25° C.
# Experimental: Evaluation experiment of the binding affinity IC50 of the compounds 1-61 to hA2A receptor
# 40 uL of ULTIMA GOLD scintillation fluid was added to each well and the CPM (count per minute) value was read by TopCount.
# T1 sequence (P29274 whole entry): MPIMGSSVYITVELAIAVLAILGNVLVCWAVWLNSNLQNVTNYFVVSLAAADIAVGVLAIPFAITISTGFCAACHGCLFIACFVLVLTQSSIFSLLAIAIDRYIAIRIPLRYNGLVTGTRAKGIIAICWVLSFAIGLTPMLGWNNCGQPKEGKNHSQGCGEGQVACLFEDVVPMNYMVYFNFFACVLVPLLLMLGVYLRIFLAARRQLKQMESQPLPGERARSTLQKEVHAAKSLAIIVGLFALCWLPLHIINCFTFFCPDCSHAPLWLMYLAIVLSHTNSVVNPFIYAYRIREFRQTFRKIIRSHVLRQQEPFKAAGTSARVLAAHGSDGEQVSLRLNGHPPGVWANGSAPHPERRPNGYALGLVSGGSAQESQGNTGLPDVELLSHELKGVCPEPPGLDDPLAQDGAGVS
row,Compound,IC50 [nM]
1,"Nc1nc(-c2ccco2)c2c(n1)C(Cc1ccccc1F)OC2=O (stereo not shown) [Compound 1, 2-amino-7-(2-fluorobenzyl)-4-(furan-2-yl)-5H,7H-furo[3,4-d]pyrimidin-5-one]",14.7
2,"CN1C(=O)c2c(-c3ccco3)nc(N)nc2C1Cc1ccc(F)cc1F (stereo not shown) [Compound 47, 2-amino-7-((2,4-difluorophenyl)methyl)-4-(furan-2-yl)-6-methyl-5H,6H,7H-pyrrolo[3,4-d]pyrimidin-5-one]",16.4
3,"Cc1ccc(-c2nc(N)nc3c2C(=O)N(C)C3=Cc2ccc(F)cc2F)o1 [Compound 48, 2-amino-7-((2,4-difluorophenyl)methylene)-4-(5-methylfuran-2-yl)-6-methyl-5H,6H,7H-pyrrolo[3,4-d]pyrimidin-5-one]",13.2
4,"Cc1ccc(-c2nc(N)nc3c2C(=O)N(C)C3Cc2ccc(F)cc2F)o1 (stereo not shown) [Compound 49, 2-amino-7-((2,4-difluorophenyl)methyl)-4-(5-methylfuran-2-yl)-6-methyl-5H,6H,7H-pyrrolo[3,4-d]pyrimidin-5-one]",32.1
5,"Cc1ccc(-c2nc(N)nc3c2C(=O)N(C)C3=Cc2ccccc2F)o1 [Compound 50, 2-amino-7-((2-fluorophenyl)methylene)-4-(5-methylfuran-2-yl)-6-methyl-5H,6H,7H-pyrrolo[3,4-d]pyrimidin-5-one]",7.3
6,"Cc1ccc(-c2nc(N)nc3c2C(=O)N(C)/C3=C\c2ccccc2C(F)(F)F)o1 [Compound 51, 2-amino-7-((2-(trifluoromethyl)phenyl)methylene)-4-(5-methylfuran-2-yl)-6-methyl-5H,6H,7H-pyrrolo[3,4-d]pyrimidin-5-one]",4.7
7,"Cc1ccc(-c2nc(N)nc3c2C(=O)N(C)C3=Cc2ccccc2OC(F)(F)F)o1 [Compound 52, 2-amino-7-((2-(trifluoromethoxyl)phenyl)methylene)-4-(5-methylfuran-2-yl)-6-methyl-5H,6H,7H-pyrrolo[3,4-d]pyrimidin-5-one]",3.6
8,"Cc1ccc(-c2nc(N)nc3c2C(=O)N(C)C3Cc2ccccc2OC(F)(F)F)o1 (stereo not shown) [Compound 53, 2-amino-7-((2-(trifluoromethoxyl)phenyl)methyl)-4-(5-methylfuran-2-yl)-6-methyl-5H,6H,7H-pyrrolo[3,4-d]pyrimidin-5-one]",56.2
9,"Cc1ccc(-c2nc(N)nc3c2C(=O)N(C)C3Cc2ccccc2C(F)(F)F)o1 (stereo not shown) [Compound 54, 2-amino-7-((2-(trifluoromethyl)phenyl)methyl)-4-(5-methylfuran-2-yl)-6-methyl-5H,6H,7H-pyrrolo[3,4-d]pyrimidin-5-one]",34.7
10,"Cc1ccc(-c2nc(N)nc3c2C(=O)N(C)C3Cc2ccccc2F)o1 (stereo not shown) [Compound 55, 2-amino-7-((2-fluorophenyl)methyl)-4-(5-methylfuran-2-yl)-6-methyl-5H,6H,7H-pyrrolo[3,4-d]pyrimidin-5-one]",29.3
11,"Cc1ccc(-c2nc(N)nc3c2C(=O)N(C)C3=Cc2ccc(F)cc2C(F)(F)F)o1 [Compound 56, 2-amino-7-((2-(trifluoromethyl)-4-fluorophenyl)methylene)-4-(5-methylfuran-2-yl)-6-methyl-5H,6H,7H-pyrrolo[3,4-d]pyrimidin-5-one]",3.4
12,"Cc1ccc(-c2nc(N)nc3c2C(=O)N(C)C3Cc2ccc(F)cc2C(F)(F)F)o1 (stereo not shown) [Compound 57, 2-amino-7-((2-(trifluoromethyl)-4-fluorophenyl)methyl)-4-(5-methylfuran-2-yl)-6-methyl-5H,6H,7H-pyrrolo[3,4-d]pyrimidin-5-one]",152
13,"Cc1ccc(-c2nc(N)nc3c2C(=O)N(C)C3Cc2cc[n+]([O-])cc2)o1 (stereo not shown) [Compound 58, 4-((2-amino-6-methyl-4-(5-methylfuran-2-yl)-5-carbonyl-5H-pyrrolo[3,4-d]pyrimidin-7(6H)-ene)methyl)-N-oxide pyridine]",21
14,"Cc1ccc(-c2nc(N)nc3c2C(=O)N(C)C3Cc2ccncc2)o1 (stereo not shown) [Compound 59, 2-amino-6-methyl-4-(5-methylfuran-2-yl)-7-(pyridin-4-ylmethyl)-6,7-dihydro-5-carbonyl-5H-pyrrolo[3,4-d]pyrimidine]",179
15,"Cc1ccc(-c2nc(N)nc3c2n(C)c(=O)n3-c2ccccc2C(F)(F)F)o1 [Compound 61, 2-amino-7-methyl-6-(5-methylfuran-2-yl)-9-(2-(trifluoromethyl)phenyl)-8(9H)-carbonyl-7H-purine]",213

# Molecular target: T1, hA2A receptor
# Experiment: binding affinity IC50 to hA2A receptor (SPA beads, Effect Embodiment 1)
# Settings: A2A receptor membrane, 1 hour at room temperature, read-out: IC50 values of compound 1 binding affinity to hA2A receptor
# Experimental: evaluation experiment of the binding affinity IC50 of the compound 1 to hA2A receptor.
# Experimental procedure • 1. Preparation of the test compound. • 1) The compound mother plate (1500 rpm, 1 minute) was centrifuged; • 2) 50 Nanoliters was transferred from the compound mother plate to the reaction plate by a nano-sound sonic pipetting system; • 2. Preparation of buffer medium membrane, preparation of beads suspension; • 1) DMSO was added to the assay buffer, final concentration of DMSO was 1%; • 2) homogenized A2A receptor membrane was connected to a 1 mL syringe five times by a No. 26 needle (to avoid air bubbles); • 3) the buffer, A2A receptor membrane and ADA were mixed, and was let stand for 15 minutes at room temperature; • 4) SPA beads were added and mixed well with A2A receptor membrane; • 3. Preparation of radioisotope buffer • 4. Mix reaction reagents • 1) 20 μL of radioactive buffer solution was added into the reaction plate; • 2) 30 μL of membrane and […] suspension was added into the reaction plate; • 3) the plate was sealed and incubated for 1 hour at room temperature with vigorous mixing and shaking; • 4) the beads were precipitated for 4-5 minutes before reading. • 5) Reading with Microbeta; • 5. Data processing
row,Compound,IC50 [nM]
1,"Nc1nc(-c2ccco2)c2c(n1)C(Cc1ccccc1F)OC2=O (stereo not shown) [Compound 1, 2-amino-7-(2-fluorobenzyl)-4-(furan-2-yl)-5H,7H-furo[3,4-d]pyrimidin-5-one]",79
